Measurements taken from patent US8710045B2, “Agents for preventing and treating disorders involving modulation of the ryanodine receptors” (The Trustees of Columbia University in the City of New York, priority 2004, dated 2014).

How the values were obtained:
C57BL/6J mice = test: S36 chronic exercise model: swimming velocity tracking and treadmill running; format: in vivo, mouse
Method: Drug Delivery: Eight-week-old, wild-type, weight-matched, C57BL/6J littermate mice were randomized to either S36 or vehicle treatment. On day −2, osmotic infusion pumps (Alzet Model 2004, 200 μl total volume, 0.25 μl/hr delivery, Durect, Cupertino, Calif.) filled with either 200 ul of PBS or 200 μl of S36 (10 μg/ul diluted in PBS) were implanted subcutaneously on the dorsal surface of the mice by a horizontal incision just behind the neck. Mice were allowed to recover for three days prior to the initiation of exercise. Standard food and water were provided ad libitum.
Exercise Protocols: Beginning on day 1, mice were exercised for three weeks by swimming 5 days/week and by running on a treadmill an additional 1 day/week.
Swimming Model: The daily swimming protocol consisted of swimming sessions twice-daily separated by one-hour rest periods. After an initial conditioning regimen lasting 5 days during which the swimming sessions were increased in 10 minute increments from 40 minutes each to 80 minutes each, the swimming sessions thereafter lasted 90 minutes each. A 30 cm wide by 30 cm long opaque acrylic tank was filled with tap water to a depth of at least 20 cm. Water was circulated and warmed to 32-34 degrees C. using a separate reservoir with heating element, thermostat, and pump. Compressed room air was bubbled from Tygon tubing with small needle holes placed at the bottom of the tank to agitate the water surface. 4 mice, matched pair-wise with respect to treatment group, swam at any one time in the tank.
In order to track the swimming activity of each individually identified mouse, a video tracking system was used (San Diego Instruments, San Diego, Calif.), which includes Sony CCD video recorder, DVD/Hard Drive, frame grabber card, and custom SMART 2.0 software with Social Behavior package capable of tracking up to 8 mice simultaneously under ideal conditions.) Mice were anesthetized by using 1.5% isoflurane in O2, and small, 0.75 cm, Velcro coins were sutured with 5-0 nylon suture to the scalp of each mouse. Plastic 1 cm colored dots, glued to the hook side of the Velcro, could be securely attached to the mouse and used for multiple subject tracking under appropriate lighting conditions. Each resultant mouse track in x,y, and time was analyzed and mean velocities, and distance swam over 2, 5, and 10 minute intervals was obtained.
Treadmill running: A Columbus Instruments (Columbus, Ohio) treadmill (Model: Exer-6M Treadmill with Treadmill Shock Detection Unit) with 6 lanes was used to run the mice. Mice were placed in their respective lanes at the lowest speed (7 meters/min) with the shocking apparatus turned off and allowed to adjust to the surroundings for 6 minutes. The forward half of the treadmill was covered with aluminum foil to block out light. A desk lamp illuminated the shocking area at the rear of the treadmill. After the adjustment period, the electric current was turned on, and the number of shocks delivered during the next two three minute intervals (training period) were recorded. The shock counter was then reset, the speed was increased to 10 m/min, and visits to the shocking area and shocks delivered to each mouse were recorded at three-minute intervals until the end of the experiment. At regular intervals, the speed of the treadmill was ramped up from the initial 10 m/min to as high as 36 m/min. The speed was increased no more than 2 m/min every 6 minutes. […]

RyR = RyR immunoprecipitation from whole brain microsomes of exercised mice; format: in vivo, mouse; settings: 21 days
Method: Tissue lysates were prepared by homogenizing the tissue (e.g., brain, cardiac, muscle) with Tissuemiser in 0.7 ml lysis buffer (pH 7.4, 10 mM HEPES, 1 mM EDTA, 20 mM NaF, 2 mM Na3 VO4, 320 mM sucrose, and protease inhibitors) and centrifuged for 15 min at 4,000×g at 4° C. The supernatant was then centrifuged for 15 min at 10,000×g at 4° C. For brain homogenates, the supernatant was centrifuged at 50,000×g at 4° C. for 30 minutes, and the pellet (microsomes) was resuspended in homogenization buffer which was supplemented with 0.9% NaCl. For brain tissue, the resuspended pellet was used for immunoprecipitation of RyR. For cardiac and muscle tissue homogenates, the supernatant of the 10,000×g spin was used for immunoprecipitation of the RyR. Protein concentrations were measured by Bradford protein assay. The sample was frozen at −80° C. until use.
100 μg of microsomes were brought to a volume of 500 μl with modified RIP A buffer (50 mM Tris-HCl (PH 7.4), 0.9% NaCl, 5.0 mM NaF, 1.0 mM Na3VO4, 0.5% TritonX100, and protease inhibitors). […] The sample was incubated with 40 μl of Protein A Sepharose beads and rotated for 1 hr at 4° C. […]
Ryanodine receptor (types 1 and 2) was immunoprecipitated from whole brain microsomes. Immunoprecipitates were separated by 4-20% PAGE and analyzed for total RyR, PKA phosphorylated RyR, and calstabin.

[1] = system: L-type calcium channel current; test: S107 specificity: L-type calcium channel current; settings: 500 nM
EDL muscle = test: Isometric force production of isolated EDL muscle after chronic exercise; format: in vivo, mouse; settings: stimulation frequencies greater than 80 Hz
Method: Intact muscle preparation: Immediately following a forced exercise session, each mouse was sacrificed by carbon dioxide inhalation and cervical dislocation. Blood was removed by intracardiac aspiration, spun down, and plasma was eluted and frozen in liquid nitrogen. 4-0 silk sutures were tied to the proximal and distal tendons of intact EDL and soleus muscles and the muscles were dissected free and placed in a modified Ringer's solution (140 mM NaCl, 5 mM KCl, 2.0 mM CaCl2, 2 mM MgCl2, 10 mM HEPES, 10 mM glucose, pH 7.4) bubbled with 100% O2. […] After perfusion with 35C Ringer's and equilibration for 10 minutes at a resting tension of 1 cN and a brief potentiation protocol, force-frequency relationships were measured, with 60 second delays between 800 ms stimulations at 40-150 Hz. […] Following stimulation, muscle length was determined at resting tension, and muscle dry weight was recorded.
Age and sex-matched WT mice were randomized to receive osmotic pumps containing either S107 or vehicle. […] Exercise capacity was assessed once a week by a level treadmill run to exhaustion during the nocturnal cycle of the mouse. […] Isometric force production was measured in EDL muscles in a tissue bath during field stimulation.

Row | SMILES | swimming velocity vs PBS (C57BL/6J mice; day 1 of exercise) | swimming velocity and treadmill distance/fatigue time vs PBS (C57BL/6J mice; day 7 of exercise) | swimming velocity vs PBS (C57BL/6J mice; day 14) | treadmill running performance vs PBS (C57BL/6J mice; day 14) | treadmill running performance vs PBS (C57BL/6J mice; day 16) | binding of calstabin to RyR in whole brain microsomes (RyR) | effect on L-type calcium channel current [1] | EDL isometric force production (EDL muscle)
1 | COc1ccc2c(c1)CN(C(=O)C(=O)O)CCS2 [S36] | no substantial difference | no substantial difference | no significant difference | trend toward improved performance | trend toward improved performance | – | – | –
2 | COc1ccc2c(c1)CN(C)CCS2 [S107] | – | – | – | – | – | restores the binding of calstabin to RyR | not to affect | increased force production
